Source: US8663669B2, “Pesticide treatment of soils or substrates with sulphur compounds” (Arkema France, priority 2002, dated 2014)

Tests used:
[1] = test system: Sclerotium rolfsii; assay: Fungicidal efficacy by gassing, sclerotia; type: cell-based; set-up: Vitality score Nm (over 19 days): scale not given here; Reduction in viability RV / Reduction in vitality score RNm: unit not given here; conditions: for Reduction in viability RV / Reduction in vitality score RNm: compared with the control
Protocol: These four organisms are the following:
Sclerotium rolfsii: a fungus which is also polyphagous and which is found, for example, on melon and courgette crops.
• Sclerotinia sclerotiorum: sclerotia • Sclerotium rolfsii: sclerotia • Rhizoctonia solani: colonized barley grains (mycelium and sclerotia) • Phytophthora cactorum: colonized millet grains (mycelium, sporangia and oospores) Preparation of the Fungi (24 h Before the Gassing Operation) 1. Preparation of the sclerotia of Sclerotinia sclerotiorum and of Sclerotium rolfsii: The fungi are cultured on malt agar medium until the sclerotia are obtained. The sclerotia are collected in a sterile manner and stored dry in empty Petri dishes until they are used. The sclerotia used for the trial are over 3 months old and are perfectly dormant. 2. Preparation of Phytophthora cactorum and of Rhizoctonia solani: The millet and barley used for the multiplication of the two fungi are moistened with ultrapure water by immersing for 24 hours. The grains are then slightly drained and then distributed into flasks and autoclaved (3 autoclavings at 110° C. for 20 minutes, 3 times at 24 hour intervals). Fragments of fungal culture are introduced into the flasks which are then incubated at 22° C.±2° C. (white light 18 h) until homogeneous colonization is obtained. The grains are then removed from the flasks in a sterile manner, dried in the sterile stream of a safety cabinet and then stored in the dry state until they are used. Conditions for Gassing and for Desorption
All the batches of fungi to be treated are placed for a few hours at the trial temperature (20° C.). Between 35 and 300 units of fungi or “propagules” (grains or sclerotia) are subjected to gassing during each trial.
Each fumigation chamber comprising to one or more species of fungi corresponds to a glass round-bottomed flask which is impervious to the gas and has a volume of 11 litres. Each round-bottomed flask is equipped with branch connections, one at the bottom for introducing the liquid DMDS, one at the top for collecting the air sample with a syringe.
Before introducing the gas, a partial vacuum (−500 mbar) is established in the round-bottomed flask with a vacuum pump. This makes it possible, on the one hand, to avoid the phenomenon of excess pressure due to the expansibility of DMDS in the round-bottomed flask and, on the other hand, to promote better homogeneity of the air-gas mixture in the first few seconds which follow injection. The DMDS (weighed accurately to the mg) is injected with a syringe, in liquid form, through the bottom branch connection, that is to say under the screen placed at half height of the round-bottomed flask and supporting the batches of fungi. After introducing the product, the internal pressure of the round-bottomed flask is re-established at atmospheric pressure. A magnetic stirrer operates during the entire duration of the treatment in order to properly homogenize the air-gas mixture.
At the end of the gassing, the cover for the round-bottomed flask is removed. One minute after this operation, the batches of fungi gassed are taken out and left in the open air for 15 minutes for desorption of the DMDS. They are then transferred into a Petri dish, the latter remaining open for 5 minutes to allow perfect desorption of the gas. […]

[2] = test system: a large number of fungi; conditions: as reported in U.S. Pat. No. 2,917,429; cited from earlier work
[3] = test system: termite (Reticulitermes santonensis); assay: Insecticidal in vitro fumigation test on termites; type: in vivo; conditions: 24 hours of fumigation, mortality counted at the end of 48 hours; 25° C.
Protocol: Dead wood infested with termites was collected from the soil on ground occupied by a colony. This dead wood serves as breeding medium. The breeding is maintained at a constant 25° C. and a day/night 12:12 alternation.
The insects are removed in an amount of 2 soldiers per 28 workers.
The tests are carried out in hermetically closed glass jars having a volume of 3 L and containing the insects.
The product to be tested is introduced through a hole 2 mm in diameter with the aid of a micropipette and deposited on a filter paper (2×5 cm: Whatman No. 1) suspended at the centre of the jar where it migrates by capillarity and vaporizes rapidly. The hole is hermetically closed again as quickly as possible.
The jars are placed for 24 hours in an incubator under the same breeding conditions.
At the end of 24 hours, after a few instants of aeration, a first count is made and then the insects are placed again under breeding conditions for another 24 hours. The counting of the mortality is therefore carried out at the end of 48 hours. […] Each test is carried out on a population of 30 to 50 insects and is accompanied by a control without treatment. Several repeats are carried out with doses close to the LC50.

[4] = CT 1 050 g·h/m^3 (C 15.91 g/m^3, T 66 h)
[5] = CT 1 402 g·h/m^3 (C 21.24 g/m^3, T 66 h)
[6] = CT 1 450 g·h/m^3 (C 30.96 g/m^3, T 48 h)
[7] = CT 1 899 g·h/m^3 (C 28.77 g/m^3, T 66 h)
[8] = CT 1 981 g·h/m^3 (C 30.02 g/m^3, T 66 h)
[9] = CT 2 460 g·h/m^3 (C 51.25 g/m^3, T 48 h)
[10] = CT 2 471 g·h/m^3 (C 37.44 g/m^3, T 66 h)
[11] = CT 2 837 g·h/m^3 (C 42.98 g/m^3, T 66 h)
[12] = CT 2 974 g·h/m^3 (C 45.06 g/m^3, T 66 h)
[13] = CT 3 169 g·h/m^3 (C 48.02 g/m^3, T 66 h)
[14] = CT 3 467 g·h/m^3 (C 52.53 g/m^3, T 66 h)
[15] = CT 419 g·h/m^3 (C 17.46 g/m^3, T 24 h)
[16] = CT 625 g·h/m^3 (C 26.04 g/m^3, T 24 h)
[17] = CT 703 g·h/m^3 (C 29.29 g/m^3, T 24 h)
[18] = CT 907 g·h/m^3 (C 37.79 g/m^3, T 24 h)

SMILES: CSSC [DMDS, dimethyl disulphide]
- Viability V [1, 4]: 27.6%
- Vitality score Nm (over 19 days) [1, 4]: 2.1
- Reduction in viability RV [1, 4]: 68.0
- Reduction in vitality score RNm [1, 4]: 71.1
- Viability V [1, 5]: 18.3%
- Vitality score Nm (over 19 days) [1, 5]: 1.3
- Reduction in viability RV [1, 5]: 78.7
- Reduction in vitality score RNm [1, 5]: 81.8
- Viability V [1, 6]: 15.0%
- Vitality score Nm (over 19 days) [1, 6]: 0.7
- Reduction in viability RV [1, 6]: 83.2
- Reduction in vitality score RNm [1, 6]: 91.8
- Viability V [1, 7]: 3.1%
- Vitality score Nm (over 19 days) [1, 7]: 0.2
- Reduction in viability RV [1, 7]: 96.4
- Reduction in vitality score RNm [1, 7]: 96.8
- Viability V [1, 8]: 4.3%
- Vitality score Nm (over 19 days) [1, 8]: 0.3
- Reduction in viability RV [1, 8]: 95.0
- Reduction in vitality score RNm [1, 8]: 95.1
- Viability V [1, 9]: 10.0%
- Vitality score Nm (over 19 days) [1, 9]: 0.4
- Reduction in viability RV [1, 9]: 88.8
- Reduction in vitality score RNm [1, 9]: 94.7
- Viability V [1, 10]: 0%
- Vitality score Nm (over 19 days) [1, 10]: 0
- Reduction in viability RV [1, 10]: 100
- Reduction in vitality score RNm [1, 10]: 100
- Viability V [1, 11]: 0%
- Vitality score Nm (over 19 days) [1, 11]: 0
- Reduction in viability RV [1, 11]: 100
- Reduction in vitality score RNm [1, 11]: 100
- Viability V [1, 12]: 0%
- Vitality score Nm (over 19 days) [1, 12]: 0
- Reduction in viability RV [1, 12]: 100
- Reduction in vitality score RNm [1, 12]: 100
- Viability V [1, 13]: 0%
- Vitality score Nm (over 19 days) [1, 13]: 0
- Reduction in viability RV [1, 13]: 100
- Reduction in vitality score RNm [1, 13]: 100
- Viability V [1, 14]: 0%
- Vitality score Nm (over 19 days) [1, 14]: 0
- Reduction in viability RV [1, 14]: 100
- Reduction in vitality score RNm [1, 14]: 100
- Viability V [1, 15]: 59.1%
- Vitality score Nm (over 19 days) [1, 15]: 5.1
- Reduction in viability RV [1, 15]: 33.7
- Reduction in vitality score RNm [1, 15]: 40.9
- Viability V [1, 16]: 53.7%
- Vitality score Nm (over 19 days) [1, 16]: 4.8
- Reduction in viability RV [1, 16]: 39.8
- Reduction in vitality score RNm [1, 16]: 44.3
- Viability V [1, 17]: 51.4%
- Vitality score Nm (over 19 days) [1, 17]: 4.4
- Reduction in viability RV [1, 17]: 42.4
- Reduction in vitality score RNm [1, 17]: 48.7
- Viability V [1, 18]: 16.2%
- Vitality score Nm (over 19 days) [1, 18]: 1.4
- Reduction in viability RV [1, 18]: 81.8
- Reduction in vitality score RNm [1, 18]: 84.2
- Activity on a large number of fungi [2]: zero activity
- LC50 (Probits method) [3]: 0.095 g × 24 h/m^3
